The values below come from ChEMBL document CHEMBL1201862, “PubChem BioAssay data set” (2004).

One experiment deals with Genome polyprotein (dengue virus type 2, UniProt P29990). Put plainly: flavivirus cap methylation enzyme inhibition – biochemical, confirmation dose response, primary screen (AID 588689). It counts as functional.
Experiment [1] addresses Tyrosine-protein phosphatase non-receptor type 11 (Homo sapiens, UniProt Q06124). Put plainly: PTPN11 enzyme inhibitors – biochemical, selectivity assay for STEP inhibitor project, dose response (AID 602367). It counts as functional. As to conditions: read-out: IC50_Mean.
In experiment [2] the target is T1, Tyrosine-protein phosphatase non-receptor type 22 (Homo sapiens, UniProt Q9Y2R2).
T1 sequence (Q9Y2R2 whole entry): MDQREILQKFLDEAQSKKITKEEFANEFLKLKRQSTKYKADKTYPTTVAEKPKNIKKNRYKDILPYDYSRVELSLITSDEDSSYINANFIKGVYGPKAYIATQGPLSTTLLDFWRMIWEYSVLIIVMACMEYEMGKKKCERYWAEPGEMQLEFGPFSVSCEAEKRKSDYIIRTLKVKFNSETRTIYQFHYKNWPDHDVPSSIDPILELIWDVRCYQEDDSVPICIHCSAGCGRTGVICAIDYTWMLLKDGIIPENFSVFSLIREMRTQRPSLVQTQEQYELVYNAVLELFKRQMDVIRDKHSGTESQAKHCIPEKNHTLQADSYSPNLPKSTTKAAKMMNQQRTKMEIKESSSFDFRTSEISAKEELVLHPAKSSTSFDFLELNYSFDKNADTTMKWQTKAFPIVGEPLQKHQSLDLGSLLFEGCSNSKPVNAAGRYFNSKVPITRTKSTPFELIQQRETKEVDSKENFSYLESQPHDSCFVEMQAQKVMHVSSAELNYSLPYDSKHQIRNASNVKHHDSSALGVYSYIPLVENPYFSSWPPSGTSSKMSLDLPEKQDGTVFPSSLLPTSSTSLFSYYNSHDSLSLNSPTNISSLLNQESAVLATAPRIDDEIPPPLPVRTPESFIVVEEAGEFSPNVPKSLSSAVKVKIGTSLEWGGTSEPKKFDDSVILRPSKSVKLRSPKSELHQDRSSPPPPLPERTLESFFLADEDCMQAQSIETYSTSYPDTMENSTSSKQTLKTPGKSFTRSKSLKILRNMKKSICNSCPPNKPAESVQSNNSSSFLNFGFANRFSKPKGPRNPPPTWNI
Put plainly: lymphoid phosphatase LYP inhibitors – biochemical, selectivity assay for STEP inhibitor project, dose response (AID 624241). It counts as functional.

In experiment [3] the target is T2, Carboxy-terminal domain RNA polymerase II polypeptide A small phosphatase 1 (Homo sapiens, UniProt Q9GZU7).
T2 sequence (Q9GZU7 whole entry): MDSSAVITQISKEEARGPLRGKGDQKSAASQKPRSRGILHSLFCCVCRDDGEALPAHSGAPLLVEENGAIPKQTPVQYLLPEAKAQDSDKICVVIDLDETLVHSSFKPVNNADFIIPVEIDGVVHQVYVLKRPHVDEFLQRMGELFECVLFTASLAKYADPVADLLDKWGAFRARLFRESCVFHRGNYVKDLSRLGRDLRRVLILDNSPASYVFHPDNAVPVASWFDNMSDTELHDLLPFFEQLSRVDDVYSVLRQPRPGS
Put plainly: CTDSP1 inhibitors, concentration-response, biochemical, absorbance readout, ultra-high-throughput screen actives (AID 540297). It counts as functional.

Experiment [4] has as its target Polyadenylate-binding protein 1 (Homo sapiens, UniProt P11940). Put plainly: blockers of PABP interaction with poly(A) – biochemical, fluorescence polarization, […] (AID 2014).
Experiment [5] addresses Tyrosine-protein phosphatase non-receptor type 5 (Homo sapiens, UniProt P54829). Put plainly: PTPN5 enzyme inhibition – biochemical, fluorescence intensity, uHTS hits, confirmation (AID 602372). It counts as functional. As to conditions: read-out: IC50_Mean.
Experiment [6] has as its target Eukaryotic translation initiation factor 4H (Homo sapiens, UniProt Q15056). Put plainly: eIF4H binding inhibition – biochemical, uHTS, fluorescence polarization, translation initiation inhibitor project, primary screen (AID 2012). For orientation: In fluorescence polarisation assays a small probe gives low polarisation when free and higher when bound to something large.

Experiment [7] concerns the target Dual specificity protein phosphatase 3 (Homo sapiens, UniProt P51452). Put plainly: VHR phosphatase inhibition, dose response, selectivity assay for STEP inhibitor project, biochemical (AID 602374). It counts as functional. As to conditions: read-out: IC50_Mean.
In experiment [8] the target is Botulinum neurotoxin type F (Clostridium botulinum, UniProt P30996). Put plainly: High-throughput multiplex microsphere dose response for inhibitors of toxin protease, specifically Botulinum neurotoxin light chain F protease, compounds from Cherry Pick 02. It counts as functional. As to conditions: read-out: EC50_MICROM.
Chain of Botulinum neurotoxin type F (P30996 1-436 limits assumed): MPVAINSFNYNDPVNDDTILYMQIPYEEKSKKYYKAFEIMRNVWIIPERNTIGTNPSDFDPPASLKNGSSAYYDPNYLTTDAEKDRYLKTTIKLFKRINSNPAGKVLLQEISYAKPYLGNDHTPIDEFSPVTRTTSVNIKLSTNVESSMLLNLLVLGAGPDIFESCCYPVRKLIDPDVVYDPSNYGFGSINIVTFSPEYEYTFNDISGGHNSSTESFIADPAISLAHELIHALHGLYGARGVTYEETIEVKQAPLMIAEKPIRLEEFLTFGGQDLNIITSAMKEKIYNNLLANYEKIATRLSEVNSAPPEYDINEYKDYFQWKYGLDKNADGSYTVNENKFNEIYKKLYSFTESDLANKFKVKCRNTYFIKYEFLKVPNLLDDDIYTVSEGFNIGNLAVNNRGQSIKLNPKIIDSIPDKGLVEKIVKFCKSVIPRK
A short description of experiment [9]: rescue of ΔF508 CFTR function, airway epithelium – human bronchial epithelial cells, plate reader, cherry-pick, two tests, dose response (AID 743267). It counts as functional, cell-based.
Experiment [10] in a line: A Cell-Based Confirmatory Screen for Compounds that Inhibit VEEV, TC-83 (3). It counts as functional.
Another experiment has as its system A549. Put plainly: viability loss in A549 cells – cell-based, plate reader, cherry-pick samples, cytotoxicity control, dose response (AID 687028). It counts as functional. As to conditions: Homo sapiens.
The target in a further experiment is Protein Wnt-3a (Mus musculus, UniProt P27467). Put plainly: SAR analysis of small molecule antagonists of Gli-SUFU in a Wnt3a luminescent reporter assay. It counts as functional. In general terms: In a reporter assay the amount or activity of a reporter protein is the signal.
Chain of Protein Wnt-3a (P27467 whole entry): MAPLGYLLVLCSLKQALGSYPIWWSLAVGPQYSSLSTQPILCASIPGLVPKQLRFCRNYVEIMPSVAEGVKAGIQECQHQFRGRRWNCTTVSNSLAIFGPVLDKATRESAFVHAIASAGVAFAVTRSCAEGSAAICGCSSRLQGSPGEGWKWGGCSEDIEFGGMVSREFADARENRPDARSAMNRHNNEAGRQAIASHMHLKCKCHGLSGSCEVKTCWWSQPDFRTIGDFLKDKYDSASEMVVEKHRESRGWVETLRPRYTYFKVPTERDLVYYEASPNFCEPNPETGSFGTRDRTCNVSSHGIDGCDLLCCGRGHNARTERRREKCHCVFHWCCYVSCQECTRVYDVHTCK
For the next experiment, the target named is Beta-galactosidase (Escherichia coli, UniProt Q8VNN2). Put plainly: Dose response counterscreen for EBI2 assay utilizing the enzyme, b-galactosidase. It counts as functional.
Chain of Beta-galactosidase (Q8VNN2 whole entry): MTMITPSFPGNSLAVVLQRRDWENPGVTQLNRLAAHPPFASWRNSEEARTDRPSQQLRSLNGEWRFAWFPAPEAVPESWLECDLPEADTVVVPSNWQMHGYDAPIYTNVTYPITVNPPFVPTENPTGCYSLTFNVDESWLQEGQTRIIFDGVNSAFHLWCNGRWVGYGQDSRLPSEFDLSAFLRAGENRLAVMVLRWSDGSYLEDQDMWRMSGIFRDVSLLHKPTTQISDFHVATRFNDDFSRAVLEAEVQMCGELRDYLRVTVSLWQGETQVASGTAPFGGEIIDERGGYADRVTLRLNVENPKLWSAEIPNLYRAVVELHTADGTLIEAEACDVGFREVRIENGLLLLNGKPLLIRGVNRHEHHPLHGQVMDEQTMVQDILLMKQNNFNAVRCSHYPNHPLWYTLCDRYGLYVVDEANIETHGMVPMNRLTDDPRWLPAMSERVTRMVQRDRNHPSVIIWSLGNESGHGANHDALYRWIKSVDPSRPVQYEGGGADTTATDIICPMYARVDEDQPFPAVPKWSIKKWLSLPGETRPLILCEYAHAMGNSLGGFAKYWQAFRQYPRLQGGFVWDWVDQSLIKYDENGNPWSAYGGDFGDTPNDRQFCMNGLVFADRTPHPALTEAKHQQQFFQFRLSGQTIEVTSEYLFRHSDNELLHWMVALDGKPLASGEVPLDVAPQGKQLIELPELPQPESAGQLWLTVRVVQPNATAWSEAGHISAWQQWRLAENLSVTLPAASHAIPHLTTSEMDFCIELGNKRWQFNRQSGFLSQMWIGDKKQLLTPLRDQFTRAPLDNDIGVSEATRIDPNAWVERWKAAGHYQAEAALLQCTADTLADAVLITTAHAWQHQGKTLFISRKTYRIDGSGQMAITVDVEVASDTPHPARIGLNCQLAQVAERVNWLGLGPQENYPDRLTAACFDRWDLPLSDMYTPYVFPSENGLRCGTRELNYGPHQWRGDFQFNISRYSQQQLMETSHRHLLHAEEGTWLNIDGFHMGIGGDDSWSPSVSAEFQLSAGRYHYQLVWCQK
Experiment [11] can be described thus: T. cruzi growth inhibition in host cells, dose response, cell-based, plate reader, dry powder, set 2 (AID 652275). It counts as functional.

The source made the active and inactive calls. Some results are limits rather than exact numbers.

Chain of Dual specificity protein phosphatase 3 (P51452 whole entry): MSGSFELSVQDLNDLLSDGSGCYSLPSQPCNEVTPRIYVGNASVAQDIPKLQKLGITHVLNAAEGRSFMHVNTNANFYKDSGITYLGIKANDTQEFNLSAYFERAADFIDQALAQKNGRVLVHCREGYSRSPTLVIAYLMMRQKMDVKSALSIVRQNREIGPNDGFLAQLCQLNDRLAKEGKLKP
Chain of Genome polyprotein (P29990 2492-3391 limits assumed): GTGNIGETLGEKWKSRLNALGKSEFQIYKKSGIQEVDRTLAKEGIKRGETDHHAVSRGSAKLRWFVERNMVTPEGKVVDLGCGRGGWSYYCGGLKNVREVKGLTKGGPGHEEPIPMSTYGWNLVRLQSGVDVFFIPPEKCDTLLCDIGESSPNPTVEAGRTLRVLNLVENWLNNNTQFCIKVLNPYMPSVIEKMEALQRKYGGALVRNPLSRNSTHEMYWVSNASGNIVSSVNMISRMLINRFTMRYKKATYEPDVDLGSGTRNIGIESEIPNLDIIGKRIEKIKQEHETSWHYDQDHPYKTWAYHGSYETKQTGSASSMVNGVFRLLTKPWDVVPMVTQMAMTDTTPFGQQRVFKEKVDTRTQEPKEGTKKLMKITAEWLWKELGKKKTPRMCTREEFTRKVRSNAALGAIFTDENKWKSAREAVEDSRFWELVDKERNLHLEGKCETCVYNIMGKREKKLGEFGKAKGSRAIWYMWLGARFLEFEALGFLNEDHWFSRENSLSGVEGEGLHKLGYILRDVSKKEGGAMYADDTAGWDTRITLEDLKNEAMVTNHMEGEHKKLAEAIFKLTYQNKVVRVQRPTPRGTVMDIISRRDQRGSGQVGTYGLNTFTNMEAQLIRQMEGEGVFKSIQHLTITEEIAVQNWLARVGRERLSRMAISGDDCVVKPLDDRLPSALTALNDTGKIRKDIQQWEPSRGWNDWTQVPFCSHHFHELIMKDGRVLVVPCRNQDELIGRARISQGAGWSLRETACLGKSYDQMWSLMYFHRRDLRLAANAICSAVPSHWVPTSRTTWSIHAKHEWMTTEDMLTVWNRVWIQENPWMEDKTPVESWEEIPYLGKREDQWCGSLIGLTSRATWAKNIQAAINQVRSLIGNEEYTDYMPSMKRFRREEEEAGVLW
Chain of Polyadenylate-binding protein 1 (P11940 whole entry): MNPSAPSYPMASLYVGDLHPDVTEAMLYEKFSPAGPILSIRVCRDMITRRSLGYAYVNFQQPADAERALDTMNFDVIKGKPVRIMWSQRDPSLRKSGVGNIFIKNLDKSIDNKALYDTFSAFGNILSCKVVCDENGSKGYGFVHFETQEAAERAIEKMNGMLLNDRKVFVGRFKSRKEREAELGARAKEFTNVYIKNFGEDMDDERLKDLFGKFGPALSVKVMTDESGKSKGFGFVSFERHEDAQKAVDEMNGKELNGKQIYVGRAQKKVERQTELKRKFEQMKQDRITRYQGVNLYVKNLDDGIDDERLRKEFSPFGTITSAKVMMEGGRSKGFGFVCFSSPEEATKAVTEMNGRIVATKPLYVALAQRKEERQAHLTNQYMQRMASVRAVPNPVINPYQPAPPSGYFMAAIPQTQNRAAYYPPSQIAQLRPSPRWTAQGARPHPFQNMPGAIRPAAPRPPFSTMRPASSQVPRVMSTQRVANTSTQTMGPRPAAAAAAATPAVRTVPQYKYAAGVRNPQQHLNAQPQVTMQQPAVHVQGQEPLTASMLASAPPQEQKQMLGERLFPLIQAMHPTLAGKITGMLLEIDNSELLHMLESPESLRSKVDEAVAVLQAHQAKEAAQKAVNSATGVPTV
Chain of Tyrosine-protein phosphatase non-receptor type 11 (Q06124 whole entry): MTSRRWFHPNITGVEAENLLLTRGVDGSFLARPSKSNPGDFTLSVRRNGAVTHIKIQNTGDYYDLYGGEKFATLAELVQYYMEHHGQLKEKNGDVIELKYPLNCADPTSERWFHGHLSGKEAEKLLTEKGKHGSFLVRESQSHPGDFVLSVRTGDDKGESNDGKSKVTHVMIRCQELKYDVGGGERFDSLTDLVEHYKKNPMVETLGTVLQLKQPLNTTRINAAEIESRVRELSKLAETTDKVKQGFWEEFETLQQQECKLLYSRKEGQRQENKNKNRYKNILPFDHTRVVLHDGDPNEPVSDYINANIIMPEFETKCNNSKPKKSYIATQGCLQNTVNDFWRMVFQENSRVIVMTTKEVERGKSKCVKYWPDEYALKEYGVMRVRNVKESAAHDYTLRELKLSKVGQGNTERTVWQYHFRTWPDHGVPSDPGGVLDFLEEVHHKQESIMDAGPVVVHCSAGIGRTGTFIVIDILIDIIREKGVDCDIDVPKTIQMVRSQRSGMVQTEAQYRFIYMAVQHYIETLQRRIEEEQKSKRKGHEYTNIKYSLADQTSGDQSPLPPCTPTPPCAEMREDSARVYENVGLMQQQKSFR
Chain of Tyrosine-protein phosphatase non-receptor type 5 (P54829 whole entry): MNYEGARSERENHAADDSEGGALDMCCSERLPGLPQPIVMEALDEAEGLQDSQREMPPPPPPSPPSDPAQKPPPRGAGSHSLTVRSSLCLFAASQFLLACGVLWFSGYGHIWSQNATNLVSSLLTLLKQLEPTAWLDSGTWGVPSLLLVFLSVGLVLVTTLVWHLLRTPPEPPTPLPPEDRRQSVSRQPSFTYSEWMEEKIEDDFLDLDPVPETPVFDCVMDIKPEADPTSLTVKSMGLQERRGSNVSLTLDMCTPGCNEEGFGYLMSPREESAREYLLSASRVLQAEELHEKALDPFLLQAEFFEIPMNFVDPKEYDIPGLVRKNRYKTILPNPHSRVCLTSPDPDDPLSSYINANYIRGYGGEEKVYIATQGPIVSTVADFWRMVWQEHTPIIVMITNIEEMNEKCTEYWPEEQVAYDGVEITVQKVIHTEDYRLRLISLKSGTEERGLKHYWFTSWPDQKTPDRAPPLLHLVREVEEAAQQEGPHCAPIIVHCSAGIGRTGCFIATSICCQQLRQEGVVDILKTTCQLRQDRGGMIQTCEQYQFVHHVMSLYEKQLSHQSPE

Consider `COc1ccc(/C=N/NC2=NC(=O)C(CC(=O)O)S2)cc1OCc1ccc(Cl)cc1Cl` (stereo not given), for which the IC50 on Genome polyprotein is 59.4 µM (active); in experiment [1], 4.42 µM (active); in experiment [2], 33.8 µM (inactive); in experiment [3] it was 4.48 µM (active); in experiment [4], 64.3 µM (active); in [5] it was 9.72 µM (active). Also, the IC50 in experiment [6] is 14.7 µM (active); in experiment [7], 4.79 µM (active).
As for `Cc1nc2ccc(NC(=O)[C@@H](NC(=O)c3c(F)cccc3F)C(C)C)cc2s1`, in experiment [8], the EC50 is > 20 µM (inactive).
By AC50 is commonly meant the concentration at which the activity in the assay is half-maximal. With `CC(C)Oc1[nH]cnc2c3ccccc3nc1-2`, the AC50 in [9] is 9.38 µM (active).
With `O=C(Cc1ccccc1)Nc1nc2c(s1)CCCC2`, in [10], the IC50 is 9.33 µM (active).
In the case of `Cc1cccc(N=[N+]([O-])c2cccc(C)n2)n1`, in the experiment on A549, the AC50 is 34.5 µM (active).
With `O=C(Nc1cc(N2CCNCC2)ncn1)c1ccccc1`, the IC50 at Protein Wnt-3a was > 21.8 µM (inactive).
In the case of `Cc1ccc2oc(C(=O)N3CCC(O)(c4ccccc4)CC3)c(C)c2c1`, the IC50 on Beta-galactosidase was > 80 µM (inactive).
Take `CCC(=O)N1CC[C@@H]2[C@H]1c1cc(-c3ccccc3)ccc1N(C)[C@@H]2CO`: in experiment [11], the AC50 is 8.49 µM (active).
